A word on the IC50: it is the concentration that inhibits the measured activity by half.

The source of these data is patent US12466822B2, “Heterocyclic compounds as immunomodulators” (Incyte Corporation, priority 2016, dated 2025).

The target of the test is T1, PD-1/PD-L1 protein/protein interaction (recombinant human PD-L1 protein (19-238), recombinant human PD-1 protein (25-167)) (Homo sapiens, UniProt Q9NZQ7).
T1 construct: Recombinant human PD-L1 protein (19-238) with a His-tag at the C-terminus; purchased AcroBiosystems PD1-H5229 (PD-L1-His); PD1-H5257 (PD-1-Fc)
T1 sequence (Q9NZQ7 19-238): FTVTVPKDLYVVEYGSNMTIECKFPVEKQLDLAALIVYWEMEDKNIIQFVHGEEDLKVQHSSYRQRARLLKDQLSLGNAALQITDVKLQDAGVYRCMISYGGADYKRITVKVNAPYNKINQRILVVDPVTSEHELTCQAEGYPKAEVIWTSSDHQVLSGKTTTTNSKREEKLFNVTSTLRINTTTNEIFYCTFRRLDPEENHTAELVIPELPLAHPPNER
The experiment in a line: PD-1/PD-L1 Homogeneous Time-Resolved Fluorescence (HTRF) Binding Assay. Conditions: 25° C., PBS buffer (pH 7.4), 40 minutes preincubation with inhibitors. The gist of the method:
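Fc-tagged human PD-1 (25-167) and His-tagged PD-L1 (19-238), listed as […] and 10 nM final, preincubated 40 min with inhibitors in PBS pH 7.4, 0.05% Tween-20, 0.1% BSA, 1% DMSO, 25 °C. Eu anti-IgG/APC anti-His added, 60 min, 665/620 nm HTRF ratio; IC50 fitted from percent control activity.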
For orientation: TR-FRET usually uses a lanthanide donor and a delayed reading to cut background.
Regarding `Cc1c(Nc2nccc3cc(CN[C@@H](C)CO)cnc23)cccc1-c1cccc(NC(=O)c2nc3c(n2C)CCN(C[C@H]2CC[C@H](C(=O)O)CC2)C3)c1Cl` [Example 50, trans-4-((2-(2-chloro-3′-(3-(((S)-1-hydroxypropan-2-ylamino)methyl)-1,7-naphthyridin-8-ylamino)-2′-methylbiphenyl-3-ylcarbamoyl)-1-methyl-6,7-dihydro-1H-imidazo[4,5-c]pyridin-5(4H)-yl)methyl)cyclohexanecarboxylic acid], the IC50 was at most 0.01 µM.
To `Cc1c(Nc2nccc3cc(CN[C@H]4CCC[C@@H]4O)cnc23)cccc1-c1cccc(NC(=O)c2nc3c(n2C)CCN(C[C@H]2CC[C@H](C(=O)O)CC2)C3)c1Cl` [Example 51, trans-4-((2-(2-chloro-3′-(3-(((1S,2S)-2-hydroxycyclopentylamino)methyl)-1,7-naphthyridin-8-ylamino)-2′-methylbiphenyl-3-ylcarbamoyl)-1-methyl-6,7-dihydro-1H-imidazo[4,5-c]pyridin-5(4H)-yl)methyl)cyclohexanecarboxylic acid] belongs at most 0.01 µM; to `Cc1c(Nc2nccc3cc(CN4CC[C@@H](O)C4)cnc23)cccc1-c1cccc(NC(=O)c2nc3c(n2C)CCN(C(C)CC(=O)O)C3)c1Cl` (stereo partly drawn) [Example 54, 3-(2-(2-chloro-3′-(3-(((R)-3-hydroxypyrrolidin-1-yl)methyl)-1,7-naphthyridin-8-ylamino)-2′-methylbiphenyl-3-ylcarbamoyl)-1-methyl-6,7-dihydro-1H-imidazo[4,5-c]pyridin-5(4H)-yl)butanoic acid], at most 0.01 µM; to `Cc1c(Nc2nccc3cc(CN4CC[C@H](O)C4)cnc23)cccc1-c1cccc(NC(=O)c2nc3c(n2C)CCN(C[C@H]2CC[C@@H](C(=O)O)CC2)C3)c1Cl` [Example 55, cis 4-((2-(2-chloro-3′-(3-(((S)-3-hydroxypyrrolidin-1-yl)methyl)-1,7-naphthyridin-8-ylamino)-2′-methylbiphenyl-3-ylcarbamoyl)-1-methyl-6,7-dihydro-1H-imidazo[4,5-c]pyridin-5(4H)-yl)methyl)cyclohexanecarboxylic acid], at most 0.01 µM.
To `Cc1c(Nc2nccc3cc(CN4CC[C@@](C)(O)C4)cnc23)cccc1-c1cccc(NC(=O)c2nc3c(n2C)CCN(C[C@H]2CC[C@@H](C(=O)O)CC2)C3)c1Cl` [Example 56, cis 4-((2-(2-chloro-3′-(3-(((R)-3-hydroxy-3-methylpyrrolidin-1-yl)methyl)-1,7-naphthyridin-8-ylamino)-2′-methylbiphenyl-3-ylcarbamoyl)-1-methyl-6,7-dihydro-1H-imidazo[4,5-c]pyridin-5(4H)-yl)methyl)cyclohexanecarboxylic acid] belongs at most 0.01 µM.
On to `Cc1c(Nc2nccc3cc(CN4CC[C@@](C)(O)C4)cnc23)cccc1-c1cccc(NC(=O)c2nc3c(n2C)CCN(C2CCC(C(=O)O)CC2)C3)c1Cl` (stereo partly drawn) [Example 57, (R)-4-(2-(2-chloro-3′-(3-((3-hydroxy-3-methylpyrrolidin-1-yl)methyl)-1,7-naphthyridin-8-ylamino)-2′-methylbiphenyl-3-ylcarbamoyl)-1-methyl-6,7-dihydro-1H-imidazo[4,5-c]pyridin-5(4H)-yl)cyclohexanecarboxylic acid], for which the IC50 was at most 0.01 µM.
Regarding `Cc1c(Nc2nccc3cc(CN4CC[C@](C)(O)C4)cnc23)cccc1-c1cccc(NC(=O)c2nc3c(n2C)CCN(C2CCC(C(=O)O)CC2)C3)c1Cl` (stereo partly drawn) [Example 58, (S)-4-(2-(2-chloro-3′-(3-((3-hydroxy-3-methylpyrrolidin-1-yl)methyl)-1,7-naphthyridin-8-ylamino)-2′-methylbiphenyl-3-ylcarbamoyl)-1-methyl-6,7-dihydro-1H-imidazo[4,5-c]pyridin-5(4H)-yl)cyclohexanecarboxylic acid], the IC50 is at most 0.01 µM.
As for `Cc1c(Nc2nccc3cc(CN[C@H](C)CO)cnc23)cccc1-c1cccc(NC(=O)c2nc3c(n2C)CCN(CC[C@H]2CC[C@H](C(=O)O)CC2)C3)c1Cl` [Example 59, trans 4-(2-(2-(2-chloro-3′-(3-(((R)-1-hydroxypropan-2-ylamino)methyl)-1,7-naphthyridin-8-ylamino)-2′-methylbiphenyl-3-ylcarbamoyl)-1-methyl-6,7-dihydro-1H-imidazo[4,5-c]pyridin-5(4H)-yl)ethyl)cyclohexanecarboxylic acid], the figure is at most 0.01 µM; as for `Cc1c(Nc2nccc3cc(CN[C@@H](C)CO)cnc23)cccc1-c1cccc(NC(=O)c2nc3c(n2C)CCN(CC[C@H]2CC[C@H](C(=O)O)CC2)C3)c1Cl` [Example 60, trans 4-(2-(2-(2-chloro-3′-(3-(((S)-1-hydroxypropan-2-ylamino)methyl)-1,7-naphthyridin-8-ylamino)-2′-methylbiphenyl-3-ylcarbamoyl)-1-methyl-6,7-dihydro-1H-imidazo[4,5-c]pyridin-5(4H)-yl)ethyl)cyclohexanecarboxylic acid], at most 0.01 µM.
To `Cc1c(Nc2nccc3cc(CN4CC[C@@](C)(O)C4)cnc23)cccc1-c1cccc(NC(=O)c2nc3c(n2C)CCN(CC[C@H]2CC[C@H](C(=O)O)CC2)C3)c1Cl` [Example 61, trans-4-(2-(2-(2-chloro-3′-(3-(((R)-3-hydroxy-3-methylpyrrolidin-1-yl)methyl)-1,7-naphthyridin-8-ylamino)-2′-methylbiphenyl-3-ylcarbamoyl)-1-methyl-6,7-dihydro-1H-imidazo[4,5-c]pyridin-5(4H)-yl)ethyl)cyclohexanecarboxylic acid] belongs at most 0.01 µM; to `Cc1c(NC(=O)c2nc3c(n2C)CCN(CC[C@H]2CC[C@H](C(=O)O)CC2)C3)cccc1-c1cccc(Nc2nccc3cc(CN4CC[C@@H](O)C4)cnc23)c1C` [Example 63, trans-4-(2-(2-(3′-(3-(((R)-3-hydroxypyrrolidin-1-yl)methyl)-1,7-naphthyridin-8-ylamino)-2,2′-dimethylbiphenyl-3-ylcarbamoyl)-1-methyl-6,7-dihydro-1H-imidazo[4,5-c]pyridin-5(4H)-yl)ethyl)cyclohexanecarboxylic acid], at most 0.01 µM.
As for `Cn1c(C(=O)Nc2cccc(-c3cccc(Nc4nccc5cc(CN6CC[C@@H](O)C6)cnc45)c3Cl)c2Cl)nc2c1CCN(CC[C@H]1CC[C@H](C(=O)O)CC1)C2` [Example 65, Trans-4-(2-(2-(2,2′-dichloro-3′-(3-(((R)-3-hydroxypyrrolidin-1-yl)methyl)-1,7-naphthyridin-8-ylamino)biphenyl-3-ylcarbamoyl)-1-methyl-6,7-dihydro-1H-imidazo[4,5-c]pyridin-5(4H)-yl)ethyl)cyclohexanecarboxylic acid], the figure is at most 0.01 µM; as for `Cc1c(NC(=O)c2nc3c(n2C)CCN(CC[C@H]2CC[C@H](C(=O)O)CC2)C3)cccc1-c1cccc(Nc2nccc3cc(CN4CC[C@@H](O)C4)cnc23)c1Cl` [Example 66, trans 4-(2-(2-(2′-chloro-3′-(3-(((R)-3-hydroxypyrrolidin-1-yl)methyl)-1,7-naphthyridin-8-ylamino)-2-methylbiphenyl-3-ylcarbamoyl)-1-methyl-6,7-dihydro-1H-imidazo[4,5-c]pyridin-5(4H)-yl)ethyl)cyclohexanecarboxylic acid], at most 0.01 µM.
Take `Cc1c(Nc2ncnc3cc(CN4CC[C@@](C)(C(=O)O)C4)cnc23)cccc1-c1cccc(NC(=O)c2nc3c(n2C)CCN(C)C3)c1Cl` [Example 67, (R)-1-((4-(2′-chloro-3′-(1,5-dimethyl-4,5,6,7-tetrahydro-1H-imidazo[4,5-c]pyridine-2-carboxamido)-2-methylbiphenyl-3-ylamino)pyrido[3,2-d]pyrimidin-7-yl)methyl)-3-methylpyrrolidine-3-carboxylic acid]: the IC50 was at most 0.01 µM.
For the compound `Cc1c(Nc2ncnc3cc(CN4CC[C@@H](O)C4)cnc23)cccc1-c1cccc(NC(=O)c2nc3c(n2C)CCN(C[C@H]2CC[C@H](C(=O)O)CC2)C3)c1Cl` [Example 69, trans 4-((2-(2-chloro-3′-(7-(((R)-3-hydroxypyrrolidin-1-yl)methyl)pyrido[3,2-d]pyrimidin-4-ylamino)-2′-methylbiphenyl-3-ylcarbamoyl)-1-methyl-6,7-dihydro-1H-imidazo[4,5-c]pyridin-5(4H)-yl)methyl)cyclohexanecarboxylic acid], the half-inhibitory concentration (IC50) was at most 0.01 µM.
As for `Cc1c(Nc2nccc3cc(CN4CC[C@@H](O)C4)cnc23)cccc1-c1cccc(Nc2nccc3nc(CN4CC[C@@H](C(=O)O)C4)cnc23)c1C` [Example 70, (R)-1-((5-(3′-(3-(((R)-3-hydroxypyrrolidin-1-yl)methyl)-1,7-naphthyridin-8-ylamino)-2,2′-dimethylbiphenyl-3-ylamino)pyrido[4,3-b]pyrazin-2-yl)methyl)pyrrolidine-3-carboxylic acid], the figure is at most 0.01 µM; as for `Cc1c(Nc2nccc3cc(CN4CC[C@@H](C(=O)O)C4)cnc23)cccc1-c1cccc(Nc2nccc3cc(C4CCCN4)cnc23)c1C` (stereo partly drawn) [Example 71, (3R)-1-((8-(2,2′-dimethyl-3′-(3-(pyrrolidin-2-yl)-1,7-naphthyridin-8-ylamino)biphenyl-3-ylamino)-1,7-naphthyridin-3-yl)methyl)pyrrolidine-3-carboxylic acid], at most 0.01 µM.
As for `OCCNCc1cnc2c(Nc3cccc(-c4cccc(Nc5nccc6cc(CN7CC[C@@H](O)C7)cnc56)c4Cl)c3Cl)nccn12` [Example 72, (R)-1-((8-(2,2′-dichloro-3′-(3-((2-hydroxyethylamino)methyl)imidazo[1,2-a]pyrazin-8-ylamino)biphenyl-3-ylamino)-1,7-naphthyridin-3-yl)methyl)pyrrolidin-3-ol], the figure is at most 0.01 µM.
